What was measured:
[1] = system: T. terrestris GH61E polypeptide; assay: Microcrystalline cellulose conversion assay I (Examples 8, 9) with T. terrestris GH61E polypeptide; type: biochemical, Thielavia terrestris; conditions: dioxy compound 0.3% w/w + T. terrestris GH61E polypeptide (10 mg/g) + endoglucanase II + beta-glucosidase (5 mg/g each), 96 hours
Protocol: (§1) A 5% microcrystalline cellulose slurry was prepared by addition of 2.5 g of AVICEL®PH101 (Sigma-Aldrich, St. Louis, Mo., USA) to a graduated 50 ml screw-cap conical tube followed by 15 ml of 1 M sodium acetate pH 5 and 1 ml of 100 mM MnSO4 and approximately 20 ml of deionizer water. Each conical tube was then mixed thoroughly by shaking/vortexing, and adjusted to 50 ml total with deionized water and mixed again. Contents of the tube were then quickly transferred to a 100 ml beaker and stirred rapidly with a magnetic stirrer. Five hundred μl aliquots of the 5% AVICEL® slurry were pipetted into wells of a 2.0 ml 96-deepwell plate (Axygen, Union City, Calif., USA) using a 1000 μl micropipette with a wide aperture tip (end of tip cut off about 2 mm from the base). Three hundred μl of either deionized water or a 1% dioxy compound solution (dissolved in deionized water) was added to each well.
(§2) The dioxy compounds assayed include caffeic acid (Sigma-Aldrich, St. Louis, Mo., USA), dichlorophenolindophenol (DCPIP; Sigma-Aldrich, St. Louis, Mo., USA), ethyl gallate (Sigma-Aldrich, St. Louis, Mo., USA), gallic acid (Sigma-Aldrich, St. Louis, Mo., USA), 3,4-dihydroxybenzoic acid (Sigma-Aldrich, St. Louis, Mo., USA), pyrocatechol (Sigma-Aldrich, St. Louis, Mo., USA), pyrogallol (Sigma-Aldrich, St. Louis, Mo., USA), sinapinic acid (3,5 dimethoxy-4-hydroxy cinnamic acid; Apin Chemicals LTD, Abingdon, UK), and tannic acid (Sigma-Aldrich, St. Louis, Mo., USA).
(§3) Enzyme mixtures were prepared and then added simultaneously to all wells in a volume of 200 μl, for a total of 1 ml in each reaction. […] All experiments reported were performed in triplicate.
(§4) After approximately 4 days, the deep-well plate was removed from the incubator and chilled overnight to 4° C. The plate was then mixed well by inversion and briefly centrifuged at 52×g in a SORVALL® RT7 centrifuge (Thermo Fisher Scientific, Waltham, Mass., USA) for 10 seconds. Samples were then mixed by pipetting, and 200 μl from each well were transferred to a MULTISCREEN® HV centrifuge filter plate assembly (Millipore, Bedford, Mass., USA). The centrifuge filter plate assembly was centrifuged at 2000 rpm in a SORVALL® RT7 centrifuge for 20 minutes. […] Sugars were detected using a refractive index detector (Agilent Technologies, Inc., Santa Clara, Calif., USA) with quantification by integration compared to purified sugar standards.
(§5) In this assay only glucose was measured since beta-glucosidase was at high levels in all samples but the controls.
(§6) A limit digest was performed to determine the total concentration accessible glucose equivalents using 100 mg of T. reesei cellulase (CELLIC™ CTec, Novozymes A/S, Bagsvaerd, Denmark) per gram cellulose, Triplicate data points were averaged and standard deviation was calculated.

[2] = system: T. aurantiacus CEL5A endoglucanase II and P. brasilianum CEL3A beta-glucosidase; assay: Microcrystalline cellulose conversion assay I (Examples 8, 9) without GH61 polypeptide; type: biochemical, Thermoascus aurantiacus; Penicillium brasilianum; conditions: dioxy compound 0.3% w/w + endoglucanase II + beta-glucosidase (5 mg/g each), no GH61; 96 hours, at either 50° C. or 60° C.
Protocol: as §1, §2, §3, §4, §5, §6

[3] = molecular target: T. aurantiacus GH61A polypeptide (Thermoascus aurantiacus, UniProt G3XAP7, N13Y); assay: Microcrystalline cellulose conversion assay II (Examples 10, 11), T. reesei CEL7A cellobiohydrolase I + A. oryzae CEL3A beta-glucosidase; type: biochemical; conditions: 72 hours, 50° C.; for conversion (hydrolysis) of the microcrystalline cellulose: dioxy compound 0.1% w/w alone, no enzymes
Chain of T. aurantiacus GH61A polypeptide (G3XAP7 whole entry N13Y): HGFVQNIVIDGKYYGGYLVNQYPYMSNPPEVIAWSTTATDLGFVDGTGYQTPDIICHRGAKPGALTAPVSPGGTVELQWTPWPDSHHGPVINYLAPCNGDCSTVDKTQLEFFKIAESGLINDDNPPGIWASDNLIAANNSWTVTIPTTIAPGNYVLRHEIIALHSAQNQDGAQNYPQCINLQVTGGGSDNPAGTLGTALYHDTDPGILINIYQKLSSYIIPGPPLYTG
Protocol: A 5% microcrystalline cellulose slurry was prepared by addition of 2.5 g of AVICEL® PH101 to a graduated 50 ml screw-cap conical tube followed by approximately 40 ml of deionized water. Each conical tube was then mixed thoroughly by shaking/vortexing, and adjusted to 50 ml total with deionized water and mixed again. For samples containing dioxy compounds, a similar slurry was prepared by the addition of 100 mg of solid dioxy compound and 2.5 g of AVICEL® PH101 to a graduated 50 ml screw-cap conical tube followed by approximately 40 ml of deionized water. Each conical tube was then mixed thoroughly by shaking/vortexing, and adjusted to 50 ml total with deionized water and mixed again.
The dioxy compounds assayed include caffeic acid, dichlorophenolindophenol (DCPIP), ethyl gallate, gallic acid, 3,4-dihydroxybenzoic acid, pyrocatechol, pyrogallol, sinapinic acid (3,5 dimethoxy-4-hydroxy cinnamic acid), and tannic acid.
In all cases, the contents of the tube (5% microcrystalline cellulose slurry with or without 0.2% dioxy compound) were then quickly transferred to a 100 ml beaker and stirred rapidly with a magnetic stirrer. Five hundred μl aliquots of the 5% AVICEL® slurry were pipetted into wells of a 2.0 ml 96-deepwell plate (Axygen, Union City, Calif.) using a 1000 μl micropipette with a wide aperture tip (end of tip cut off about 2 mm from the base). One hundred μl of deionized water and 300 μl of 3.33 mM MnSO4-500 mM sodium acetate pH 5 were then added to each well. Enzyme mixtures were prepared and then added simultaneously to all wells in a volume of 100 μl, for a total of 1 ml in each reaction. […] All experiments reported were performed in triplicate.
as §4, with “Primary analysis of the hydrolysis reactions was performed using an AGILENT® 1100 HPLC with CHEMSTATION® software equipped with an AMINEX™ HPX-87H column. After” for “After”, “centrifuge” for “centrifuge (Thermo Fisher Scientific, Waltham, Mass., USA)”, “assembly.” for “assembly (Millipore, Bedford, Mass., USA).”, “detector” for “detector (Agilent Technologies, Inc., Santa Clara, Calif., USA)”
All HPLC data processing was performed using MICROSOFT EXCEL™ software. […] In this assay only glucose was measured since beta-glucosidase was at high levels in all samples but the controls. The degree of cellulose conversion was calculated using Equation 1. Triplicate data points were averaged and standard deviation was calculated.
The microcrystalline cellulose hydrolysis assay was performed as described in Example 10.
Data were collected and analyzed, as described in Example 10, after 72 hours of incubation at 50° C.

## CCOC(=O)c1cc(O)c(O)c(O)c1 [ethyl gallate]
[1]; 50° C.
  conversion of microcrystalline cellulose: 6.0±0.3%
[1]; 60° C.
  conversion of microcrystalline cellulose: 6.2±0.1%
[2]
  change in conversion of microcrystalline cellulose compared to the enzymes in the absence of the dioxy compound: no significant change
[3]
  conversion (hydrolysis) of the microcrystalline cellulose: no significant hydrolysis

## Oc1ccccc1O [pyrocatechol]
[1]; 50° C.
  conversion of microcrystalline cellulose: 7.4±0.2%
[1]; 60° C.
  conversion of microcrystalline cellulose: 7.9±0.1%
[2]
  change in conversion of microcrystalline cellulose compared to the enzymes in the absence of the dioxy compound: no significant change
[3]; dioxy compound 0.1% w/w + cellobiohydrolase I + beta-glucosidase (5 mg/g each), no GH61
  conversion of the microcrystalline cellulose: no significant change
[3]
  conversion (hydrolysis) of the microcrystalline cellulose: no significant hydrolysis

## Oc1cccc(O)c1O [pyrogallol]
[1]; 50° C.
  conversion of microcrystalline cellulose: 7.1±0.5%
[1]; 60° C.
  conversion of microcrystalline cellulose: 9.5±0.1%
[2]
  change in conversion of microcrystalline cellulose compared to the enzymes in the absence of the dioxy compound: no significant change
[3]
  conversion (hydrolysis) of the microcrystalline cellulose: no significant hydrolysis

— patent US9394555B2, “Compositions comprising a polypeptide having cellulolytic enhancing activity and a dioxy compound and uses thereof” (priority 2010, dated 2016)
